US10143691B2, “Pathogenic control of apoptosis” (CSIR, priority 2014, dated 2018)
“Also recorded” adds a separate entry of the source.

What was measured:
Type in all cases: cell-based
HuR = assay: Immunofluorescence of HuR cellular location in Ghost(3) cells; conditions: Ghost(3) cells, Doxorubicin-treated, no HIV
Description: For each experiment, Ghost(3) cells or IPSC-derived primary macrophages were infected or treated with 500 nM Doxorubicin on coverslips, fixed for 10 mins in fresh 4% paraformaldehyde at room temperature, then washed 3 times in PBS and permeabilised for 10 mins in ice-cold methanol at […]. Coverslips were washed once in PBS and incubated in blocking buffer (5% goat serum, 0.3% TritonX100 in PBS) for 60 mins at room temperature. Cells were incubated in primary antibody solution (1% BSA, 0.3% Triton X100 in PBS) overnight at 4° C. Double strand breaks were detected using rabbit polyclonal anti-phosphohistone H2A.X Ser139 (Cell Signaling). Activated ATM was detected using rabbit monoclonal anti-phosphoATM Ser1981 (Cell Signaling). The ability of p53 to regulate apoptosis was detected using rabbit polyclonal antiphosphop53 Ser46 (Cell Signaling). Viral p24 was detected using mouse monoclonal anti-HIV1p24 (AIDS Research and Reference Reagent Program, Division of AIDS, NIAID, NIH). HuR was detected using mouse monoclonal anti-HuR 3A2 (Santa Cruz Biotechnology). hnRNPK was detected using goat polyclonal anti-hnRNPK P20 (Santa Cruz Biotechnology). […]
(§1) For each experiment, cells were infected or treated with drugs on coverslips, fixed for 10 mins in fresh 4% paraformaldehyde at room temperature, then washed 3 times in PBS and permeabilised for 10 mins in ice-cold methanol at −20° C. […] Double strand breaks were detected using rabbit polyclonal anti-phospho-histone H2A.X Ser139 (Cell Signaling). Activated ATM was detected using rabbit monoclonal anti-phospho-ATM Ser1981 (Cell Signaling). The ability of p53 to regulate apoptosis was detected using rabbit polyclonal anti-phospho-p53 Ser46 (Cell Signaling). Viral p24 was detected using mouse monoclonal anti-HIV-1-p24 (AIDS Research and Reference Reagent Program, Division of AIDS, NIAID, NIH). HuR was detected using mouse monoclonal anti-HuR 3A2 (Santa Cruz Biotechnology). hnRNP-K was detected using goat polyclonal anti-hnRNP-K P-20 (Santa Cruz Biotechnology). […]

p53pSer46 = assay: Immunofluorescence staining of p53pSer46 apoptotic mark; conditions: Ghost(3) cells, Doxorubicin 500 nM, no HIV
Description: For each experiment, Ghost(3) cells or IPSC-derived primary macrophages were infected or treated with 500 nM Doxorubicin on coverslips, fixed for 10 mins in fresh 4% paraformaldehyde at room temperature, then washed 3 times in PBS and permeabilised for 10 mins in ice-cold methanol at […]. Coverslips were washed once in PBS and incubated in blocking buffer (5% goat serum, 0.3% TritonX100 in PBS) for 60 mins at room temperature. Cells were incubated in primary antibody solution (1% BSA, 0.3% Triton X100 in PBS) overnight at 4° C. Double strand breaks were detected using rabbit polyclonal anti-phosphohistone H2A.X Ser139 (Cell Signaling). Activated ATM was detected using rabbit monoclonal anti-phosphoATM Ser1981 (Cell Signaling). The ability of p53 to regulate apoptosis was detected using rabbit polyclonal antiphosphop53 Ser46 (Cell Signaling). Viral p24 was detected using mouse monoclonal anti-HIV1p24 (AIDS Research and Reference Reagent Program, Division of AIDS, NIAID, NIH). HuR was detected using mouse monoclonal anti-HuR 3A2 (Santa Cruz Biotechnology). hnRNPK was detected using goat polyclonal anti-hnRNPK P20 (Santa Cruz Biotechnology). Coverslips were washed 3 times (5 mins each on an orbital shaker) with wash buffer (0.05% Tween20 in PBS), followed by incubation with secondary antibodies conjugated to either Atto550 or Atto565 or Atto647 for 60 mins at room temperature. […]

H2A.XpSer139 = assay: Immunofluorescence staining of double strand breaks (H2A.XpSer139)
Description: For each experiment, Ghost(3) cells or IPSC-derived primary macrophages were infected or treated with 500 nM Doxorubicin on coverslips, fixed for 10 mins in fresh 4% paraformaldehyde at room temperature, then washed 3 times in PBS and permeabilised for 10 mins in ice-cold methanol at […]. Coverslips were washed once in PBS and incubated in blocking buffer (5% goat serum, 0.3% TritonX100 in PBS) for 60 mins at room temperature. Cells were incubated in primary antibody solution (1% BSA, 0.3% Triton X100 in PBS) overnight at 4° C. Double strand breaks were detected using rabbit polyclonal anti-phosphohistone H2A.X Ser139 (Cell Signaling). Activated ATM was detected using rabbit monoclonal anti-phosphoATM Ser1981 (Cell Signaling). The ability of p53 to regulate apoptosis was detected using rabbit polyclonal antiphosphop53 Ser46 (Cell Signaling). Viral p24 was detected using mouse monoclonal anti-HIV1p24 (AIDS Research and Reference Reagent Program, Division of AIDS, NIAID, NIH). HuR was detected using mouse monoclonal anti-HuR 3A2 (Santa Cruz Biotechnology). hnRNPK was detected using goat polyclonal anti-hnRNPK P20 (Santa Cruz Biotechnology). Coverslips were washed 3 times (5 mins each on an orbital shaker) with wash buffer (0.05% Tween20 in PBS), followed by incubation with secondary antibodies conjugated to either Atto550 or Atto565 or Atto647 for 60 mins at room temperature. Coverslips were washed 3 times (5 mins each on an orbital shaker) with wash buffer (0.05% Tween20 in PBS). Coverslips were incubated in equilibration buffer (0.4% glucose, 2×SCC) for 5 mins and counter stained with 1 mg/ml DAPI (4′,6-diamidino-2-phenylindole; Life Technologies). Coverslips were mounted in glox buffer (3.7 mg/ml glucose oxidase, 1 U catalase) and imaged.
as §1, with “C. Coverslips were washed once in PBS and incubated in blocking buffer (5% goat serum, 0.3% Triton-X100 in PBS) for 60 mins at room temperature.” for “C.”

COc1cccc2c1C(=O)c1c(O)c3c(c(O)c1C2=O)C[C@@](O)(C(=O)CO)C[C@@H]3O[C@H]1C[C@H](N)[C@H](O)[C@H](C)O1 [Doxorubicin]
cellular location of HuR (HuR): cytoplasmic HuR within 8 hours; also recorded: moved from the nucleus into the cytoplasm within 8 hours of treatment
phosphorylation of p53 at Ser46 (p53pSer46): phosphorylation of both ATMpSer1981 and p53pSer46 in the nucleus within 8 hours; also recorded: Activated p53 dimers are detected
DSBs (H2A.XpSer139 staining) (H2A.XpSer139; Ghost(3) cells infected with HIV-1 24 hours prior to Doxorubicin treatment): numerous DSBs
DSBs (H2A.XpSer139 staining) (H2A.XpSer139; Ghost(3) cells infected with HIV-1 after exposure to Doxorubicin): extensive H2A.XpSer139 staining
H2A.X (pSer139) staining of DSBs (H2A.XpSer139; uninfected Ghost(3) cells, lethal dose of Doxorubicin (500 nM)): extensive H2A.X staining within 8 hours of treatment; also recorded: extensive H2A.XpSer139 staining
